Twelve compounds from patent publication US20210179632A1, “THIENOPIPERIDINE DERIVATIVE AND USE THEREOF” (JIANGSU TASLY DIYI PHARMACEUTICAL CO. LTD., priority 2013, published 2021) can be followed below.

The structures appear in SMILES notation.

The assay deals with platelet aggregation induced by ADP. Briefly: Platelet aggregation induced by ADP in platelet-rich plasma of rats drawn 2 hours after dosing (NJ4 Semi-Platelet Aggregation Analyzer). Type of assay: in vivo. The settings on record: male Wistar rats, 3 mg/kg as suspension in 0.25 wt % CMC, blood drawn 2 hours after administration, negative control 61.22 ± 4.73, * P < 0.001. An excerpt:
The maximum aggregation rate of irreversible condensed phase can be used to evaluate the effect of subject products on coagulation function. The experiment used NJ4 type Semi-Platelet Aggregation Analyzer of precil company, to survey the inhibitory effect of the subject products provided by Tasly Holding Group. Co. Ltd on platelet aggregation. • Materials • Animals: male Wistar rats, body weight 230-250 g, bought from Beijing Vital River Laboratory • Animal Technology Co. Ltd., animal certification number:SCXK ( ? ) 2007-0001. • Reagents: ADP, bought from Sigma company; clopidogrel was prepared referring to the method in Chinese Journal of Medicinal Chemistry 2007, 17 (3) 163-165; prasugrel was prepared referring to the method in Chinese Journal of Pharmaceuticals 2012, 43 (8) 647-649; vicagrel was prepared referring to the method in Journal of Medicinal Chemistry, 2012, 55(7), 3342-3352. • Subject products: 7 subject products were all provided by Tasly Holding Group. Co. Ltd. • Administration dosage: subject products were suspensed in CMC in a concentration of 0.25 wt %, were administered in a dosage of 3 mg/kg body weight, the administration volume was 2 ml.
2 hours after administering drugs to the rats, anesthesia with mebubarbital, draw blood from abdominal aorta, anticoagulation with sodium citrate 1:9. Obtained platelet-rich plasma and platelet-poor plasma by centrifugation, the volume ratio of the two was platelet-poor plasma:platelet-rich plasma=3:1.
For `COC(=O)[C@H](c1ccccc1Cl)N1CCc2sccc2C1` [Clopidogrel, reference compound], the “The maximum aggregation rate of platelet irreversible condensed phase” value (shortened to “The maximum aggregation rate”) was 46.77 ± 8.28*. The value for `CC(=O)Oc1cc2c(s1)CCN(C(C(=O)C1CC1)c1ccccc1F)C2` (stereo not drawn) [Prasugrel, prasugrel, reference compound] was 20.72 ± 18.84*. With `COC(=O)[C@H](c1ccccc1Cl)N1CCc2sc(OP(=O)(OC)OC)cc2C1` [TSC-1], the “The maximum aggregation rate” value is listed as 45.8 ± 3.55*. Consider `CCOP(=O)(OCC)Oc1cc2c(s1)CCN([C@H](C(=O)OC)c1ccccc1Cl)C2` [TSC-2], for which the “The maximum aggregation rate” value is reported as 41.7 ± 7.43*. With `COC(=O)[C@H](c1ccccc1Cl)N1CCc2sc(OP(=O)(OC(C)C)OC(C)C)cc2C1` [TSC-3], the “The maximum aggregation rate” value is recorded as 38.7 ± 4.27*. With `COC(=O)[C@H](c1ccccc1Cl)N1CCc2sc(OP(=O)(Oc3ccccc3)Oc3ccccc3)cc2C1` [TSC-4], the “The maximum aggregation rate” value was 46.5 ± 8.16*.

On to `COC(=O)[C@H](c1ccccc1Cl)N1CCc2sc(OP(=O)(OCC(Cl)(Cl)Cl)OCC(Cl)(Cl)Cl)cc2C1` [TSC-5], for which the “The maximum aggregation rate” value is 39.1 ± 5.66*.

Turning to `COC(=O)[C@H](c1ccccc1Cl)N1CCc2sc(OP(=O)(O)O)cc2C1` [TSC-6], the “The maximum aggregation rate” value is given as 29.6 ± 5.33*. Regarding `COC(=O)[C@H](c1ccccc1Cl)N1CCc2sc(OCOP(=O)(OC(C)(C)C)OC(C)(C)C)cc2C1` [TSC-7], the “The maximum aggregation rate” value is on record as 39.2 ± 6.16*. The value for `COC(=O)[C@H](c1ccccc1Cl)N1CCc2sc(OCOP(=O)(O)O)cc2C1` [TSC-8] was 32.7 ± 9.21*; that for `COC(=O)[C@H](c1ccccc1Cl)N1CCc2sc(OS(=O)(=O)O)cc2C1` [TSC-9] was 25.7 ± 3.25*.

Consider `COC(=O)[C@H](c1ccccc1Cl)N1CCc2sc(OC(C)=O)cc2C1` [Vicagrel, vicagrel, reference compound], for which the “The maximum aggregation rate” value is listed as 32.36 ± 5.14*.
